Experimental data published in EP1695711A2, “Parenteral formulations comprising boronic acid species for selective thrombin inhibition” (TRIGEN LIMITED, priority 2002, dated 2004).
Counter-ions that a name gives are not always drawn. Like-named read-outs stand apart in the source and are kept apart here.

Assays:
[1] = test system: platelet procoagulant activity; experiment: Inhibition of platelet procoagulant activity; type: cell-based
Excerpt: Platelet pro-coagulant activity may be observed as the increase, in rate of activation of prothrombin by factor Xa in the presence of factor Va upon the addition of platelets pretreated with thrombin, caused by thrombin alone, collagen alone or a mixture of thrombin and collagen. This property is due to an increase in anionic phospholipid on the surface of the platelet with concomitant release of microvesicle from the surface. This is an essential physiological reaction and people whose platelets have reduced ability to generate procoagulant activity (Scott syndrome) show an increased tendency for bleeding.
Washed platelets were treated with either 1.15nM thrombin, 23µg/ml collagen or a mixture of both at the same concentration at 37°C. TRI 50b was added either for 1 minute prior to the addition of activator or immediately after the incubation with activator. Platelet procoagulant activity was determined as described previously (Goodwin C A et al, Biochem J. 1995 8, 308: 15-21).

platelet rich thrombus = experiment: Rabbit extracorporeal shunt model; type: in vivo, NZW rabbits; conditions: for THROMBUS WEIGHT AFTER 20 minute run: n=5
Excerpt: The technique describes an animal model in which a platelet rich thrombus is produced. The activity of TRI 50b and heparin are compared.
The carotid artery and jugular vein of anaesthetised rabbits were used to create an extracorporeal circuit containing a suspended foreign surface (silk thread). Thrombus deposition is initiated by creation of high sheer stress turbulent arterial blood flow, platelet activation, followed by coagulation in the presence of thrombogenic surfaces. Histopathological studies have shown that the thrombus is platelet rich.
NZW rabbits (males 2.5-3.5 kg) were used. The animals were allowed food and water up to the induction of anaesthesia.
Animals were premedicated with […] (Hypnorm) 0.15 ml total by intramuscular injection. General anaesthesia was induced with methohexitone (10 mg/ml) to effect, followed by endotracheal intubation. Anaesthesia was maintained with isoflurane (1-2.0 %) carried in oxygen /nitrous oxide.
The animals were placed in dorsal recumbency and the ventral cervical region prepared for surgery. The left carotid artery and right jugular vein were exposed. The artery was cannulated with a large Portex® catheter (yellow gauge), cut to a suitable length. The vein was cannulated with a Silastic® catheter. The shunt comprised of a 5 cm length of 'auto analyser' line (purple /white gauge). Joins to the shunt on the arterial side were made with intermediate size Silastic® tubing. The shunt was filled with saline before exposure to the circulation. The right femoral artery was cannulated for the measurement of blood pressure.
The central section of the shunt contained a thread 3 centimetres in length. This consisted of 000 gauge Gutterman sewing silk so as to give four strands with a single knot at the end. (The knot section was outside the shunt).
Blood flow velocity was determined by use of 'Doppler' probes (Crystal Biotech). A silastic probe was positioned over the carotid artery at the point of insertion of the arterial catheter. Flow was recorded on a chart recorder using heat sensitive paper.

[2] = Hydrolysis under HPLC assay conditions; type: physicochemical; conditions: acid conditions / sample preparation of an HPLC assay
[3] = i.v. pharmacokinetics in rats; conditions: rat
Procedure: (§1) Rats, body weight circa 250-300g were used. The animals were fasted only on the day of use for the iv stage.
(§2) Just before administration, 5 volumes of this solution is mixed with 3 volumes of 5% kollidon 17 8F.
(§3) Both compounds were given at a dose of 1.0mg/kg iv.
(§4) The compounds were dosed in a PEG/ethanol/kollidon formulation which was prepared immediately before, as described immediately under the heading "Dose": Stock 15.0mg/ml. This was dosed at 1.33ml/kg (equivalent to 30mg/kg).
(§5) A pre dose sample was taken followed by: 0, 2, 5, 10, 20, 30, 40, 60 and 90 minutes post dose.
(§6) This was obtained by centrifugation (3000 RPM for 10 min) and stored at -20°C prior to analysis.

washed platelets = experiment: Aggregation of washed platelets; type: cell-based
[4] = Stability: HPLC-PDA assay before and after drying; type: physicochemical; conditions: for Amount: 5 mg in 5 mL
Procedure: An assay of TRI 50c and its sodium and lysine salts before and after drying.
For sample analysis, 5 mg of dried and non-dried material was weighed in a 5 mL volumetric flask and dissolved in 1 mL acetonitrile and filled up with demineralised water to 5 mL.
The quantitative evaluation was performed using an HPLC-PDA method.

thrombin time and APTT = type: in vivo, beagle dogs; conditions: dog
Procedure: Plasma was prepared by centrifugation and frozen at minus 20°C pending analysis.

[5] = rat, in vivo, iv, 1 mg/kg
Procedure: as §1, §2, §3, §4, §5, §6

[6] = Maximum aqueous solubility (shaken in water at 37°C, filtered, UV spectrum); type: physicochemical; conditions: read-out: Solubility when dissolved at 50mg/ml
thrombin = molecular target: T1, thrombin (Homo sapiens, UniProt P00734); experiment: Thrombin amidolytic assay (S2238, Vmax); type: biochemical; conditions: TRI 50b as external control; Fig. 1
T1 construct: purchased HTI, via Cambridge Bioscience
Procedure: Chromogenic substrate S2238 dissolved to 4mM (25mg + 10ml) in water. Diluted to 50uM with assay buffer for use in assay at 5µM. (S2238 is H-D-Phe-Pip-Arg-pNA).
Thrombin obtained from HTI, via Cambridge Bioscience, and aliquoted at 1mg/ml with assay buffer. Dilute to 100ng/ml with assay buffer and then a further 1 in 3 for use in the assay.
• 110µl assay buffer • 50ul 5µg/ml thrombin • 20µl vehicle or compound solution • 5 min at 37°C • 20µl 50µM S2238

[7] = dry (desiccator over phosphorus pentoxide for 1 week)
[8] = dry (desiccator over phosphorus pentoxide for 1 week), listed as TRI 50c Na salt, monosodium salt
[9] = non-dried, listed as TRI 50c Na salt, monosodium salt

COCCC[C@H](NC(=O)[C@@H]1CCCN1C(=O)[C@@H](Cc1ccccc1)NC(=O)OCc1ccccc1)B1OC(C)(C)C(C)(C)O1 [TRI 50b, Cbz-(R)-Phe-Pro-BoroMpg-OPinacol]
IC50 ([1]; agonist Collagen (23µg/ml), TRI 50b added 1 minute prior to activator, read-out: I C50 plus pre-incubation): 200 nM | IC50 ([1]; agonist Collagen (23µg/ml), TRI 50b added after incubation with activator, read-out: I C50 without incubation): 300 nM | IC50 ([1]; agonist Thrombin/Collagen, TRI 50b added 1 minute prior to activator, read-out: I C50 plus pre-incubation): 3 nM | IC50 ([1]; agonist Thrombin/Collagen, TRI 50b added after incubation with activator, read-out: I C50 without incubation): 80 nM | THROMBUS WEIGHT AFTER 20 minute run (platelet rich thrombus; 3.0mg/kg iv): 15.3 ±2.2 mg(n=5) | bleeding (platelet rich thrombus; 3mg/kg to 10mg/kg iv): without bleeding | THROMBUS WEIGHT AFTER 20 minute run (platelet rich thrombus; 10mg/kg iv): 9.78 ±1.9 mg(n=5) | hydrolysis to the acid form (TRI 50c) [2]: short half life | Area under curve ([3]; 1.0mg/kg iv, n=3): 1.68 | Max Plasma Concentration (observed) ([3]; 1.0mg/kg iv, n=3): 2.24 | Vd ([3]; plasma, iv, 1 mg/kg): 0.5 L/kg | effect on ADP, collagen or epinephrine induced aggregation (washed platelets): does not have an effect

COCCC[C@H](NC(=O)[C@@H]1CCCN1C(=O)[C@@H](Cc1ccccc1)NC(=O)OCc1ccccc1)B(O)O [TRI 50c Lys salt]
Purity (% area) [4, 7]: 90.17 % area | Amount [4, 7]: 813.3 µg/mL | Purity (% area) ([4]; non-dried): 92.25 % area | Amount ([4]; non-dried): 809.8 µg/mL

COCCC[C@H](NC(=O)[C@@H]1CCCN1C(=O)[C@@H](Cc1ccccc1)NC(=O)OCc1ccccc1)B(O)O [TRI 50c sodium salt, Cbz-(R)-Phe-(S)-Pro-(R)-Mpg-B(OH)2 monosodium salt]
Amount [4, 8]: 1024 µg/mL | Purity (% area) [4, 8]: 98.81 % area | Amount [4, 9]: 1005.8 µg/mL | Purity (% area) [4, 9]: 98.61 % area | thrombin time (thrombin time and APTT; 1.0 mg/kg i.v., 2 minutes post dose, base line 14.3 seconds, listed as sodium salt, monosodium salt, 1 mg/kg): 154.4 s | thrombin time (thrombin time and APTT; 1.0 mg/kg i.v., 2 minutes post dose, base line 14.3 seconds, monosodium salt, 1 mg/kg): 154 s | thrombin time (thrombin time and APTT; 1.0 mg/kg i.v., one hour post dose): 26 s | elevation in the APTT (thrombin time and APTT; 1.0 mg/kg i.v., post dose): 1.3 times | APTT (thrombin time and APTT; 1.0 mg/kg i.v., post dose, base line 19 seconds): 25 s | Thrombin clotting time elevation above base line (thrombin time and APTT; 1.0 mg/kg i.v., two minutes following dosing): 10.8 times | tolerability / adverse events (thrombin time and APTT; in vivo, iv, 1 mg/kg): tolerated well with no adverse events

COCCC[C@H](NC(=O)[C@@H]1CCCN1C(=O)[C@@H](Cc1ccccc1)NC(=O)OCc1ccccc1)B(O)O [TRI 50c, Cbz-(R)-Phe-(S)-Pro-(R)-boroMpg-OH]
Purity (% area) [4, 7]: 82.00 % area | Amount [4, 7]: 1000.0 µg/mL | Area under curve [5]: 1.48 | Max Plasma Concentration (observed) [5]: 2.35 | Volume Distribution [5]: 0.59 L/kg

COCCC[C@H](NC(=O)[C@@H]1CCCN1C(=O)[C@@H](Cc1ccccc1)NC(=O)OCc1ccccc1)B(O)O [lithium salt]
solubility [6]: 43 mg/mL

COCCC[C@H](NC(=O)[C@@H]1CCCN1C(=O)[C@@H](Cc1ccccc1)NC(=O)OCc1ccccc1)B(O)O [magnesium salt of TRI 50c]
activity in thrombin amidolytic assay (thrombin): the same activity as TRI 50b
